Converted amounts (≈) assume the structure as drawn. Read-outs that look alike come from different tables or passages of the source.
Key:
Format in all cases: cell-based
Navicula incerta = test: Growth reduction / MIC test against Navicula incerta in Guillard's F/2 medium, chlorophyll fluorescence; conditions: Table 12; read-out: N. incerta MIC
Escherichia coli = test: Growth reduction / MIC test against Escherichia coli in Luria-Bertani broth, absorbance 600 nm; conditions: for MIC: Escherichia coli, read-out: E. Coli MIC; for Percent reduction in growth of Escherichia coli: Table 3
Protocol: (§1) The antimicrobial properties of the Formulations were determined by measuring the minimum inhibitory concentration (MIC) or by using an adaptation of the MIC test. […] Additional details of the MIC method can be found at Andrews, J. M., Journal of Antimicrobial Chemotherapy (2001) 48, 5-16, incorporated herein by reference in its entirety.
In accordance with the MIC test, working solutions for each Formulation were prepared by dissolving 100 mg of each Formulation in 10 mL of methanol (Sigma-Aldrich) to generate a 10 mg/mL solution. Next, 10 ml of Luria-Bertani broth was spiked with 200 μL of the mg/mL Formulation solution to achieve a final concentration of 0.2 mg/mL.
0.2 mL of each concentration of each Formulation (spiked with E. coli) was added in triplicate to a 96-well plate. Additionally, 0.2 mL of Luria-Bertani broth without any E. coli or Formulation and 0.2 mL of Luria-Bertani broth with E. coli, but no Formulations, served as negative and positive growth controls, respectively. Plates were then placed in an incubator, at 37° C. for 24 hrs (with shaking), and then measured for growth by taking absorbance measurements at 600 nm with a multi-well plate spectrophotometer (Synergy HT). The efficacy of each Formulation was measured by determining the percent reduction in bacterial growth as a function of Formulation concentration.
Next, the antimicrobial activity of Formulations 69-77 and Reference 1 toward E. coli was measured by determining the percent reduction in bacterial growth as a function of concentration. The results for the examples were compared to various PEIs used to produce the examples.

[1] = tested on: Pseudoalteromonas atlantica; test: MIC test against Pseudoalteromonas atlantica
Protocol: as §1
The antimicrobial activity of Formulations 10-12, also derived from ETCS and PEI, was determined toward a suite of marine microorganisms, namely, Pseudoalteromonas atlantica, Cellulophaga lytica, Cobetia marina, and Halomonas pacifica. The antimicrobial activity of Formulations 10-12 was determined toward these marine microorganisms according to the methods of EXAMPLES 5-7. The MIC for each Formulation against each strain is compared to that of the PEI, ETCS, and TCS (alone) in Table 7.

[2] = Formulation Concentration 0.78125 μg/mL
[3] = Formulation Concentration 1.5625 μg/mL
[4] = Formulation Concentration 3.125 μg/mL
[5] = Formulation Concentration 6.25 μg/mL
[6] = Formulation Concentration 12.5 μg/mL
[7] = Formulation Concentration 25 μg/mL
[8] = Formulation Concentration 50 μg/mL
[9] = Formulation Concentration 100 μg/mL

MIC (Navicula incerta)	MIC (Escherichia coli; Table 12)	MIC ([1]; Table 7, read-out: P. atlantica MIC)	SMILES	Percent reduction in growth of Escherichia coli (Escherichia coli; [2])	Percent reduction in growth of Escherichia coli (Escherichia coli; [3])	Percent reduction in growth of Escherichia coli (Escherichia coli; [4])	Percent reduction in growth of Escherichia coli (Escherichia coli; [5])	Percent reduction in growth of Escherichia coli (Escherichia coli; [6])	Percent reduction in growth of Escherichia coli (Escherichia coli; [7])	Percent reduction in growth of Escherichia coli (Escherichia coli; [8])	Percent reduction in growth of Escherichia coli (Escherichia coli; [9])	MIC (Escherichia coli)	MIC ([1]; read-out: P. atlantica MIC)
> 100 µg/mL	> 100 µg/mL	> 100 µg/mL	Clc1ccc(Oc2ccc(Cl)cc2OCC2CO2)c(Cl)c1 (stereo not drawn) [ETCS, 2-((5-chloro-2-(2,4-dichlorophenoxy)phenoxy)methyl)oxirane]	0.00%	0.00%	0.00%	0.00%	0.00%	0.00%	0.00%	0.26%		
			Oc1cc(Cl)ccc1Oc1ccc(Cl)cc1Cl [TCS, triclosan]	14.66%	52.34%	93.43%	93.93%	93.43%	93.93%	93.93%	93.93%	0.781 µg/mL	50 µg/mL (≈ 173 µM)
